Where two headings read alike, the source gives them in different places.

The record followed here is patent publication US3976762A (priority 1974, dated 1976).

The conditions of this series: mouse, in vivo; for Urine and Feces, percent of total injected radioactivity: iv.

Regarding Tc-99m-1,5-diaminopentylphosphonic acid, the “Localization / excretion of the complex (in words)” value is listed as “high uptake of the complex by the kidney without rapid excretion”. Also, the “Urine and Feces, percent of total injected radioactivity” value (“Urine and Feces, percent” for short) (0 h) turned out to be 0.0. Moreover, the “Urine and Feces, percent” value (0.5 h) was determined as 47.3. The “Urine and Feces, percent” value (1 h) turned out to be 55.0. In addition, the “Urine and Feces, percent” value (2 h) came to 61.3. Where the note is “24 h”, the “Urine and Feces, percent” value is 83.2.

In the case of Tc-99m-1-aminobutylphosphonic acid, the “Localization / excretion of the complex (in words)” value is on record as “rapidly excreted via the kidney”. Moreover, the “Urine and Feces, percent” value (0 h) amounted to 0.0. The “Urine and Feces, percent” value (0.5 h) worked out at 74.2. Moreover, the “Urine and Feces, percent” value (1 h) turned out to be 85.0. In addition, where the note is “2 h”, the “Urine and Feces, percent” value is reported as 90.7. Besides, the “Urine and Feces, percent” value (4 h) came out at 86.6.
